Each structure is given as a SMILES string. Positions of bridges follow the written chain, without caps; N, C: chain ends. Non-standard residues stand in square brackets, D forms with d. Residues, ends and D or L forms follow the SMILES beside them. S5 = C=CCCC[C@](C)(N)C(=O)O; Nle = CCCC[C@H](N)C(=O)O

For this test, the system named is DocSTm toxin. As to conditions: DocSTm 5 μM, peptide 50 μM; for Average Tm of DocSTm in the presence of peptide: pH 8.0, average ± SD, replicates 3-48 (Table S3); for ΔTm (thermal shift) of DocSTm in the presence of peptide: SYPRO Orange 3×, 20 mM K2HPO4, 50 mM (NH4)2SO4, pH 8.0, average Tm with peptide minus average Tm of free DocSTm, mean ± SD. The protocol: The thermal shift assay was performed using a Mx3005P qPCR System (Agilent) collecting fluorescence data with a temperature ramp of 25 to 95 °C. Samples were prepared in a buffer containing 20 mM K2HPO4 and 50 mM (NH4)2SO4 at pH 8.0, with a final concentration of recombinant Doc protein at 5 μM and Phd peptides at 50 μM. SYPRO Orange dye (Sigma-Aldrich, 5000X stock in DMSO) was used to monitor protein denaturation in a final concentration of 3×. The final sample volume was 20 μL. Each condition was prepared in triplicate in each independent experiment. The melting curves were plotted using GraphPad Prism 9 (GraphPad Software, USA), and the melting temperatures were obtained by fitting the sigmoidal section of the curves to a Boltzmann sigmoid function. For the calculation of thermal shifts ΔTm, the average melting temperature of free DocSTm toxin as determined in the respective peptide measurement cycles was subtracted from the average melting temperature of DocSTm in the presence of the peptide (Table S3).

Take `CCCC[C@H](NC(=O)[C@H](Cc1c[nH]c2ccccc12)NC(C)=O)C(=O)N[C@@H](CC(N)=O)C(=O)N[C@@]1(C)CCCC=CCCC[C@@](C)(C(=O)N[C@H](C(=O)N[C@@H](CCCC)C(=O)N[C@@H](C)C(=O)N[C@H](C(=O)N[C@@H](Cc2c[nH]cn2)C(=O)NCC(=O)N[C@@H](CCCNC(=N)N)C(=O)N[C@@H](CCC(N)=O)C(=O)N[C@@H](CC(C)C)C(=O)N[C@@H](CCCNC(=N)N)C(=O)N[C@@H](CCCNC(=N)N)C(=O)N[C@@H](CC(C)C)C(=O)N[C@@H](C)C(=O)N[C@@H](CCCNC(=N)N)C(=O)N[C@@H](CCCCN)C(=O)O)C(C)C)[C@@H](C)CC)NC(=O)[C@H](C)NC(=O)[C@H](Cc2ccccc2)NC(=O)[C@H](CCC(=O)O)NC1=O` [Peptide 35] (Ac-W[Nle]N[S5]EFA[S5]I[Nle]AVHGRQLRRLARK-OH; staple 4-8): the “Average Tm of DocSTm in the presence of peptide” value (“Average Tm of DocSTm” for short) came out at 59.9 ± 0.4 °C.

Take `CCCC[C@H](NC(=O)[C@H](Cc1c[nH]c2ccccc12)NC(C)=O)C(=O)N[C@@H](CC(=O)O)C(=O)N[C@@H](CC(=O)O)C(=O)N[C@@H](CCC(=O)O)C(=O)N[C@@H](Cc1ccccc1)C(=O)N[C@@H](C)C(=O)N[C@@H](C)C(=O)N[C@H](C(=O)N[C@@H](CCCC)C(=O)N[C@@H](C)C(=O)N[C@H](C(=O)N[C@@H](Cc1c[nH]cn1)C(=O)NCC(=O)N[C@@H](CCCNC(=N)N)C(=O)N[C@@H](CCC(=O)O)C(=O)N[C@@H](CC(C)C)C(=O)N[C@@H](CCCNC(=N)N)C(=O)N[C@@H](CCC(=O)O)C(=O)N[C@@H](CC(C)C)C(=O)N[C@@H](C)C(=O)N[C@@H](CC(=O)O)C(=O)N[C@@H](CCCCN)C(=O)O)C(C)C)[C@@H](C)CC` [Peptide 9] (Ac-W[Nle]DDEFAAI[Nle]AVHGRELRELADK-OH): the “Average Tm of DocSTm” value was determined as 72.3 ± 0.4 °C.

Regarding `CCCC[C@H](NC(=O)[C@H](Cc1c[nH]c2ccccc12)NC(C)=O)C(=O)N[C@@H](CC(=O)O)C(=O)N[C@@H](CCCNC(=N)N)C(=O)N[C@@H](CCC(=O)O)C(=O)N[C@@H](Cc1ccccc1)C(=O)N[C@@H](C)C(=O)N[C@@H](C)C(=O)N[C@H](C(=O)N[C@@H](CCCC)C(=O)N[C@@H](C)C(=O)N[C@H](C(=O)N[C@@H](Cc1c[nH]cn1)C(=O)NCC(=O)N[C@@H](CC(N)=O)C(=O)N[C@@H](CCC(=O)O)C(=O)N[C@@H](CC(C)C)C(=O)N[C@@H](CCCNC(=N)N)C(=O)N[C@@H](CCC(=O)O)C(=O)N[C@@H](CC(C)C)C(=O)N[C@@H](C)C(=O)N[C@@H](CC(=O)O)C(=O)N[C@@H](CCCCN)C(=O)O)C(C)C)[C@@H](C)CC` [Peptide 3] (Ac-W[Nle]DREFAAI[Nle]AVHGNELRELADK-OH), the “Average Tm of DocSTm” value amounted to 67.4 ± 0.2 °C.

In the case of `CCCC[C@H](NC(=O)[C@H](Cc1c[nH]c2ccccc12)NC(C)=O)C(=O)N[C@@H](CCCNC(=N)N)C(=O)N[C@@H](CC(N)=O)C(=O)N[C@@H](CCC(N)=O)C(=O)N[C@@H](Cc1ccccc1)C(=O)N[C@@H](C)C(=O)N[C@@H](C)C(=O)N[C@H](C(=O)N[C@@H](CCCC)C(=O)N[C@@H](CCCNC(=N)N)C(=O)N[C@H](C(=O)N[C@@H](Cc1c[nH]cn1)C(=O)NCC(=O)N[C@@]1(C)CCCC=CCCC[C@@](C)(C(=O)N[C@@H](CC(C)C)C(=O)N[C@@H](C)C(=O)N[C@@H](CC(N)=O)C(=O)N[C@@H](CCCCN)C(=O)O)NC(=O)[C@H](CCCNC(=N)N)NC(=O)[C@H](CC(C)C)NC(=O)[C@H](CCC(N)=O)NC1=O)C(C)C)[C@@H](C)CC` [Peptide 23] (Ac-W[Nle]RNQFAAI[Nle]RVHG[S5]QLR[S5]LANK-OH; staple 15-19), the “Average Tm of DocSTm” value came to 57.5 ± 0.9 °C.

As to `CCCC[C@H](NC(=O)[C@H](Cc1c[nH]c2ccccc12)NC(C)=O)C(=O)N[C@@H](CC(=O)O)C(=O)N[C@@H](CC(=O)O)C(=O)N[C@@H](CCC(=O)O)C(=O)N[C@@H](Cc1ccccc1)C(=O)N[C@@H](C)C(=O)N[C@@H](C)C(=O)N[C@H](C(=O)N[C@@H](CCCC)C(=O)N[C@@H](C)C(=O)N[C@@H](CCCNC(=N)N)C(=O)N[C@@H](Cc1c[nH]cn1)C(=O)NCC(=O)N[C@@H](CC(N)=O)C(=O)N[C@@H](CCC(=O)O)C(=O)N[C@@H](CC(C)C)C(=O)N[C@@H](CCCNC(=N)N)C(=O)N[C@@H](CCC(=O)O)C(=O)N[C@@H](CC(C)C)C(=O)N[C@@H](C)C(=O)N[C@@H](CC(=O)O)C(=O)N[C@@H](CCCCN)C(=O)O)[C@@H](C)CC` [Peptide 8] (Ac-W[Nle]DDEFAAI[Nle]ARHGNELRELADK-OH), the “Average Tm of DocSTm” value came out at 67.8 ± 0.1 °C.

In the case of `CCCC[C@H](NC(=O)[C@H](Cc1c[nH]c2ccccc12)NC(C)=O)C(=O)N[C@@H](CCCNC(=N)N)C(=O)N[C@@H](CCCNC(=N)N)C(=O)N[C@@H](CCC(=O)O)C(=O)N[C@@H](Cc1ccccc1)C(=O)N[C@@H](CCCNC(=N)N)C(=O)N[C@@H](CCCNC(=N)N)C(=O)N[C@H](C(=O)N[C@@H](CCCC)C(=O)N[C@@H](CCCNC(=N)N)C(=O)N[C@H](C(=O)N[C@@H](Cc1c[nH]cn1)C(=O)NCC(=O)N[C@@H](CC(N)=O)C(=O)N[C@@H](CCC(=O)O)C(=O)N[C@@H](CC(C)C)C(=O)N[C@@H](CCCNC(=N)N)C(=O)N[C@@H](CCC(=O)O)C(=O)N[C@@H](CC(C)C)C(=O)N[C@@H](C)C(=O)N[C@@H](CC(=O)O)C(=O)N[C@@H](CCCCN)C(=O)O)C(C)C)[C@@H](C)CC` [Peptide 14] (Ac-W[Nle]RREFRRI[Nle]RVHGNELRELADK-OH), the “ΔTm (thermal shift) of DocSTm in the presence of peptide” value was 11–13 °C and the “Average Tm of DocSTm” value stood at 56.0 ± 0.1 °C.

Consider `CCCC[C@H](NC(=O)[C@H](Cc1c[nH]c2ccccc12)NC(C)=O)C(=O)N[C@@H](CCCNC(=N)N)C(=O)N[C@@H](CC(N)=O)C(=O)N[C@@H](CCC(=O)O)C(=O)N[C@@H](Cc1ccccc1)C(=O)N[C@@H](CCCNC(=N)N)C(=O)N[C@@H](C)C(=O)N[C@H](C(=O)N[C@@H](CCCC)C(=O)N[C@@H](CCCNC(=N)N)C(=O)N[C@H](C(=O)N[C@@H](Cc1c[nH]cn1)C(=O)NCC(=O)N[C@@H](CC(N)=O)C(=O)N[C@@H](CCC(N)=O)C(=O)N[C@@H](CC(C)C)C(=O)N[C@@H](CCCNC(=N)N)C(=O)N[C@@H](CCC(=O)O)C(=O)N[C@@H](CC(C)C)C(=O)N[C@@H](C)C(=O)N[C@@H](CC(N)=O)C(=O)N[C@@H](CCCCN)C(=O)O)C(C)C)[C@@H](C)CC` [Peptide 28] (Ac-W[Nle]RNEFRAI[Nle]RVHGNQLRELANK-OH), for which the “Average Tm of DocSTm” value is 62.1 ± 0.2 °C.

Turning to `CCCC[C@H](NC(=O)[C@H](Cc1c[nH]c2ccccc12)NC(C)=O)C(=O)N[C@@H](CCCNC(=N)N)C(=O)N[C@@H](CC(N)=O)C(=O)N[C@@H](CCC(=O)O)C(=O)N[C@@H](Cc1ccccc1)C(=O)N[C@@H](C)C(=O)N[C@@H](C)C(=O)N[C@H](C(=O)N[C@@H](CCCC)C(=O)N[C@@H](CCCNC(=N)N)C(=O)N[C@H](C(=O)N[C@@H](Cc1c[nH]cn1)C(=O)NCC(=O)N[C@@H](CC(N)=O)C(=O)N[C@@H](CCC(N)=O)C(=O)N[C@@H](CC(C)C)C(=O)N[C@@H](CCCNC(=N)N)C(=O)N[C@@H](CCC(=O)O)C(=O)N[C@@H](CC(C)C)C(=O)N[C@@H](C)C(=O)N[C@@H](CC(N)=O)C(=O)N[C@@H](CCCCN)C(=O)O)C(C)C)[C@@H](C)CC` [Peptide 26] (Ac-W[Nle]RNEFAAI[Nle]RVHGNQLRELANK-OH), the “Average Tm of DocSTm” value worked out at 62.9 ± 0.3 °C.

With `CCCC[C@H](NC(=O)[C@H](Cc1c[nH]c2ccccc12)NC(C)=O)C(=O)N[C@@H](CC(=O)O)C(=O)N[C@@H](CC(=O)O)C(=O)N[C@@H](CCC(=O)O)C(=O)N[C@@H](Cc1ccccc1)C(=O)N[C@@H](CCCNC(=N)N)C(=O)N[C@@H](C)C(=O)N[C@H](C(=O)N[C@@H](CCCC)C(=O)N[C@@H](C)C(=O)N[C@H](C(=O)N[C@@H](Cc1c[nH]cn1)C(=O)NCC(=O)N[C@@H](CC(N)=O)C(=O)N[C@@H](CCC(=O)O)C(=O)N[C@@H](CC(C)C)C(=O)N[C@@H](CCCNC(=N)N)C(=O)N[C@@H](CCC(=O)O)C(=O)N[C@@H](CC(C)C)C(=O)N[C@@H](C)C(=O)N[C@@H](CC(=O)O)C(=O)N[C@@H](CCCCN)C(=O)O)C(C)C)[C@@H](C)CC` [Peptide 5] (Ac-W[Nle]DDEFRAI[Nle]AVHGNELRELADK-OH), the “Average Tm of DocSTm” value was determined as 69.7 ± 0.7 °C.

Turning to `CCCC[C@H](NC(=O)[C@H](Cc1c[nH]c2ccccc12)NC(C)=O)C(=O)N[C@@H](CC(N)=O)C(=O)N[C@@H](CC(N)=O)C(=O)N[C@@H](CCC(=O)O)C(=O)N[C@@H](Cc1ccccc1)C(=O)N[C@@H](C)C(=O)N[C@@]1(C)CCCC=CCCC[C@@](C)(C(=O)N[C@@H](Cc2c[nH]cn2)C(=O)NCC(=O)N[C@@H](CCCNC(=N)N)C(=O)N[C@@H](CCC(N)=O)C(=O)N[C@@H](CC(C)C)C(=O)N[C@@H](CCCNC(=N)N)C(=O)N[C@@H](CCCNC(=N)N)C(=O)N[C@@H](CC(C)C)C(=O)N[C@@H](C)C(=O)N[C@@H](CCCNC(=N)N)C(=O)N[C@@H](CCCCN)C(=O)O)NC(=O)[C@H](C)NC(=O)[C@H](CCCC)NC(=O)[C@H]([C@@H](C)CC)NC1=O` [Peptide 37] (Ac-W[Nle]NNEFA[S5]I[Nle]A[S5]HGRQLRRLARK-OH; staple 8-12), the “ΔTm (thermal shift) of DocSTm in the presence of peptide” value is reported as “reduced stabilization” and the “Average Tm of DocSTm” value was found to be 55.3 ± 1.5 °C.

The values are drawn from paper PMC10728895, “Stapled Phd Peptides Inhibit Doc Toxin Induced Growth Arrest in Salmonella” (ACS Chemical Biology, 2023).
